{"source": "patent US5786344A", "about": "“Camptothecin drug combinations and methods with reduced side effects” (priority 1995, dated 1998)", "key": {"[1]": {"tested_on": "p-glycoprotein", "details": "cited from earlier work"}, "[2]": {"tested_on": "p-glycoprotein", "details": "cited from earlier work", "remark": "listed apart in the source"}, "[3]": {"tested_on": "multi-drug resistance (MDR) P388 cells", "details": "cited from earlier work"}, "[4]": {"tested_on": "p-glycoprotein", "details": "rat, in vivo", "procedure": "Animal protocol: Female Wistar rats (~200 gm) having a permanent catheter installed in the right jugular vein were obtained from Charles River Breeding Laboratories (Wilmington, Mass.).\nThe catheter was flushed with 500 μl of physiologic saline after each drug administration.\nAfter each sample the catheter was flushed with an equal volume of physiologic saline. The samples were immediately centrifuged at 2500×g for 10 minutes and the plasma obtained was stored at -70° C. until analysis.\nData Analysis: The plasma concentration-time profile of the control and pretreated groups of rats were analyzed using non-compartmental methods (PCNONLIN, SCI, Lexington, Ky.). […] The nonparametric Mann-Whitney test was used to test for differences in AUC between the control and pretreated groups."}, "[5]": {"details": "cited from earlier work"}, "[6]": {"assay": "Phase I pharmacokinetics of CPT-11, SN-38 and SN-38G in plasma/urine after 90 min iv infusion", "procedure": "All patients met the standard laboratory criteria including criteria for adequate organ function. Informed, written consent was obtained from all patients prior to their first dose of CPT-11. The drug was given in 500 cc normal saline by intravenous infusion over 90 minutes on a weekly basis for four doses in a sixweek cycle. […] A second cycle was given with the same dose and schedule used during cycle 1. […] Patients who experienced dose limiting neutropenia were eligible to receive G-CSF at 5 μg/kg/day according to the criteria defined below.\nTo determine drug and metabolite levels, heparinized blood samples obtained on the first cycle of therapy, were centrifuged and the plasma was stored at -70° C. until analysis. CPT (camptothecin, 1 μg/ml, obtained from the National Cancer Institute, Bethesda, Md.) was used as an internal standard. One hundred μl of plasma was extracted with 2 ml of methanol, centrifuged at 2500×g for 10 min and the supernatant was evaporated to dryness. Reconstitution was done with 200 μl of methanol containing 0.1% 10M HCL (pH~2.0). For the estimation of SN-38G, plasma samples were extracted as described above. Prior to reconstitution, the samples were incubated with 1000 U of glucuronidase (Sigma Chemical Co., St. Louis, Mo.) for 2 hours at 37° C.\nAnalysis was done using a C18 column (μBondapak, 10 μm, 3.9×300 mm; Waters Associates, Milford, Mass.) preceded by a Novapak C18 guard column. […] Detection was monitored by a Hitachi F1050 Fluorescence detector (Hitachi Instruments Inc., Naperville, Ill.) with a λex at 375 nm and λem at 566 nm. […] SN-38G concentrations were determined as the increase in SN-38 concentrations following incubation with glucuronidase.\nThe plasma concentration-time data of CPT-11, SN-38 and SN-38G were analyzed by non-compartmental analysis using PCNONLIN (SCI, Lexington, Ky.). The area under the plasma concentration-time curve (AUC) from time zero (predose) to the time of the last quantifiable concentration (AUCt) was calculated by the trapezoidal rule. The AUC extrapolated to time infinity (AUCt →.infin.) was estimated by dividing the last quantifiable concentration by the terminal rate constant obtained by the log-linear regression of the terminal elimination phase. The AUC was the summation of AUCt and AUCt→.infin.. Clearance (CL) was estimated as the ratio of the dose and AUC.\nThe present study employed this principle to obtain an estimate of SN-38 excreted in the bile. Since glucuronidation is the major pathway of elimination of SN-38, the fraction of SN-38 not conjugated would be primarily excreted in the bile. The net biliary concentration of SN-38 would then be a resultant of its formation and elimination. This concentration was expressed as the \"biliary ratio\" which was the ratio of AUC of SN-38 to SN-38G. To control for individual variability in the amount of available drug, the ratio was multiplied by the AUC of CPT-11 to obtain a \"biliary index\" of SN-38.\nThe nonparametric Mann-Whitney test was employed to test for differences in pharmacokinetic outcomes between two patient groups, defined by the worst severity of diarrhea experienced in the first two cycles of CPT-11 treatment. Statistical tests were performed in the Number Cruncher Statistical System (Dr. Jerry Hintz, Kaysville, Utah). A two-sided significance level of less than or equal to 0.05 was considered statistically significant."}, "[7]": {"tested_on": "tumors", "details": "cited from earlier work"}, "[8]": {"tested_on": "DNA topoisomerase 1", "details": "cited from earlier work"}, "[9]": {"details": "sodium salt; cited from earlier work"}, "[10]": {"tested_on": "glucuronosyltransferase", "details": "cited from earlier work"}, "[11]": {"details": "animal studies; cited from earlier work"}, "[12]": {"details": "cited from earlier work", "remark": "listed apart in the source"}, "[13]": {"details": "nude mice, accumulation in the intestine; cited from earlier work"}, "[14]": {"molecular_target": "T1, p-glycoprotein (Homo sapiens, UniProt P08183)", "T1 construct": "membrane vesicles from the multidrug resistant breast tumor cell line; endogenous in cells; host or cells: MCF-7/Adr (multidrug resistant human breast cancer cell line), membrane vesicles", "T1 sequence (P08183 whole entry)": "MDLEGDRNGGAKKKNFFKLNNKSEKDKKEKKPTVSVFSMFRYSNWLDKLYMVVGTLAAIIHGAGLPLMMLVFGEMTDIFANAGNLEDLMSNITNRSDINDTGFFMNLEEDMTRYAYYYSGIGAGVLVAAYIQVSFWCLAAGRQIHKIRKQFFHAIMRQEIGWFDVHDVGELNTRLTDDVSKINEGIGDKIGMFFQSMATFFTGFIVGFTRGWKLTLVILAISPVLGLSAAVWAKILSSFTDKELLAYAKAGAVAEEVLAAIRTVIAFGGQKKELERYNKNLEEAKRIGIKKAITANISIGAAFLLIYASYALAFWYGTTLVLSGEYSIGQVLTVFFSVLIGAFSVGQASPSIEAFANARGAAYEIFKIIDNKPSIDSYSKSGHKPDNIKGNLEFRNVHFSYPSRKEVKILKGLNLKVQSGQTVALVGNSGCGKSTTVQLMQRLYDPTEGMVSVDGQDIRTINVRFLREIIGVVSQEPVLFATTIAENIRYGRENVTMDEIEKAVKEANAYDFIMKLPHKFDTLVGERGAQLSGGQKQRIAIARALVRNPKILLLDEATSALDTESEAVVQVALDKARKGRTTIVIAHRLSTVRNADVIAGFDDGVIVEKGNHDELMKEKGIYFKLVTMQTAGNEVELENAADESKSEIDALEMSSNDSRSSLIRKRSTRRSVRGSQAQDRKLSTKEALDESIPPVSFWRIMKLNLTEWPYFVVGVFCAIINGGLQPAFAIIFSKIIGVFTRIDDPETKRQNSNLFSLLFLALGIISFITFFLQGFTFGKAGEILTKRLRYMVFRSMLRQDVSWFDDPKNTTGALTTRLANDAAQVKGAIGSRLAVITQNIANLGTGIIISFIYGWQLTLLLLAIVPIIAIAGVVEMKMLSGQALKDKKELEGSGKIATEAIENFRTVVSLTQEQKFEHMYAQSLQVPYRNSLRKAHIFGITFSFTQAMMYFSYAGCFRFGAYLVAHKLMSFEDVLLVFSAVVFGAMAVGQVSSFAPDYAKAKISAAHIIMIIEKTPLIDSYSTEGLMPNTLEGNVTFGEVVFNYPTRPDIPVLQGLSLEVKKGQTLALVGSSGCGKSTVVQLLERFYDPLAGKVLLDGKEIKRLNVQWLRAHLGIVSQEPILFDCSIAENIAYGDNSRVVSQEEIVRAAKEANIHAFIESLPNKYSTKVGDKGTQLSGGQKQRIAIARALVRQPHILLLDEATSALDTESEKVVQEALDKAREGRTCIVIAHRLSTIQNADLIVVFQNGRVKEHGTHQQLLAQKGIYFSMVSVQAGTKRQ", "assay": "in vitro", "assay_type": "binding", "source_text": "FIG. 5. […]. Membrane vesicles from the multidrug resistant human breast cancer tumor cell line […] were used. […]."}, "[15]": {"tested_on": "p-glycoprotein", "details": "mouse, in vivo; cited from earlier work"}, "[16]": {"tested_on": "O . volvulus microfilaria", "details": "cited from earlier work"}, "[17]": {"details": "gastrointestinal tract or solution; cited from earlier work"}}, "note": "Where “and” joins values, the source holds several entries; their conditions need not be identical. Equal entries are not always repeated. Entries after “also recorded” stand apart in the source; their conditions may differ. Where two headings read alike, the source gives them in different places.", "data": [{"smiles": "C/C=C/C[C@@H](C)C(=O)[C@H]1C(=O)N[C@@H](C(C)C)C(=O)N(C)CC(=O)N(C)[C@@H](CC(C)C)C(=O)N[C@@H](C(C)C)C(=O)N(C)[C@@H](CC(C)C)C(=O)N[C@@H](C)C(=O)N[C@H](C)C(=O)N(C)[C@@H](CC(C)C)C(=O)N(C)[C@@H](CC(C)C)C(=O)N(C)[C@@H](C(C)C)C(=O)N1C", "note": "[SDZ PSC 833]", "values": [{"measurement": "inhibition of / interaction with p-glycoprotein", "setting": "[1]", "result": "inhibited p-glycoprotein; also recorded: effective inhibitor; also recorded: effective at inhibiting p-glycoprotein"}, {"measurement": "persistence of p-glycoprotein inhibition", "setting": "[1]; single pulse exposure", "result": "still exhibiting inhibition of p-glycoprotein function even two days after a single pulse exposure"}, {"measurement": "p-glycoprotein inhibition relative to comparator", "setting": "[1]; vs verapamil, cyclosporine A, progesterone or anthracycline analogues", "result": "more effective than cyclosporine A; also recorded: stronger inhibitors than verapamil"}, {"measurement": "effect of acidic extracellular conditions on inhibitory activity", "setting": "[2]; acidic pH", "result": "not affected by acidic extracellular conditions"}, {"measurement": "inhibition of vinblastine transport", "setting": "[2]", "result": "the most effective inhibitor"}, {"measurement": "lowest inhibitory concentration", "setting": "[2]", "result": "10 ng/ml and 9 nM"}, {"measurement": "activity relative to cyclosporine A in restoring drug sensitivity", "setting": "[3]", "result": "at least one order of magnitude more active than cyclosporine A"}]}, {"smiles": "CCc1c2c(nc3ccc(O[C@@H]4O[C@H](C(=O)O)[C@@H](O)[C@H](O)[C@H]4O)cc13)-c1cc3c(c(=O)n1C2)COC(=O)[C@]3(O)CC", "note": "[SN-38G]", "values": [{"measurement": "Overall Increase in AUC SN-38G", "setting": "[4]", "result": 1.93, "unit": "fold"}, {"measurement": "biliary radioactivity excreted over 24 h as", "setting": "[5]; rats, 24 h", "result": 22, "unit": "%"}, {"measurement": "increase of AUC from 100 to 175 mg/m^2", "setting": "[6]; 1.75 fold dose range", "result": 2.7, "unit": "fold"}, {"measurement": "urinary estimates of SN-38G, fold lower in patients with grade 3-4 diarrhea (average)", "setting": "[6]; grade 3-4 diarrhea", "result": 2.5, "unit": "fold"}, {"measurement": "increase in AUC between 145 and 175 mg/m^2", "setting": "[6]; in vivo", "result": "no increase"}]}, {"smiles": "CC[C@@]1(O)C(=O)OCc2c1cc1n(c2=O)Cc2cc3ccccc3nc2-1", "note": "[Camptothecin]", "values": [{"measurement": "antitumor activity reduction", "setting": "[7]; sodium salt vs closed lactone", "result": "about 10 fold"}, {"measurement": "concentration producing nicks in the DNA", "setting": "[8]", "result": "about 0.5 μM"}, {"measurement": "dose-limiting toxicity in early clinical trials", "setting": "[9]", "result": "severe dose-limiting hemorrhagic cystitis and unpredictable myelosuppression"}]}, {"smiles": "Cc1c(-c2cnccn2)ssc1=S", "note": "[Oltipraz, 4-methyl-5(2-pyrazinyl)-3H-1,2-dithiole-3-thione]", "values": [{"measurement": "induction of phase II enzymes / glucuronidation", "setting": "[10]", "result": "inducer of GST and UDP-glucuronosyltransferase"}]}, {"smiles": "CCc1c2c(nc3ccc(O)cc13)-c1cc3c(c(=O)n1C2)COC(=O)[C@]3(O)CC", "note": "[SN-38, 7-ethyl-10-hydroxy-camptothecin]", "values": [{"measurement": "route of excretion", "setting": "[11]", "result": "excreted primarily into bile"}, {"measurement": "terminal half-life of closed ring forms", "setting": "[12]; human, in vivo", "result": "7.6 to 8.8", "unit": "h"}, {"measurement": "potency relative to the parent drug CPT-11", "setting": "[7]; in vivo", "result": "600-1000 times"}, {"measurement": "cause of diarrhea", "setting": "[13]", "result": "responsible for the diarrhea"}, {"measurement": "substrate of p-glycoprotein", "setting": "[14]", "result": "substrates of p-glycoprotein"}, {"measurement": "inhibition at 100 µM", "setting": "[14]; human, mcf-7/adr membrane vesicles", "result": 60, "unit": "%"}, {"measurement": "biliary radioactivity excreted over 24 h as", "setting": "[5]; rat, in vivo", "result": 9, "unit": "%"}, {"measurement": "increase in AUC SN-38 from secondary peak", "setting": "[6]; in vivo", "result": "~12", "unit": "%"}, {"measurement": "increase of AUC from 100 to 175 mg/m^2", "setting": "[6]; in vivo", "result": 3.7, "unit": "fold"}, {"measurement": "interpatient variability of AUC (percent coefficient of variation)", "setting": "[6]; in vivo", "result": "2-44%"}]}, {"smiles": "CC[C@H](C)[C@H]1O[C@]2(CC[C@@H]1C)C[C@@H]1C[C@@H](C/C=C(\\C)[C@@H](O[C@H]3C[C@H](OC)[C@@H](O[C@H]4C[C@H](OC)[C@@H](O)[C@H](C)O4)[C@H](C)O3)[C@@H](C)/C=C/C=C3\\CO[C@@H]4[C@H](O)C(C)=C[C@@H](C(=O)O1)[C@]34O)O2", "note": "[Ivermectin]", "values": [{"measurement": "time to peak plasma concentration", "setting": "[12]; oral", "result": "≤ 4", "unit": "h"}, {"measurement": "half-life", "setting": "[12]; plasma or terminal half-life", "result": "about 10 hours"}, {"measurement": "sensitivity of p-glycoprotein-disrupted mice", "setting": "[15]", "result": "increased sensitivity"}, {"measurement": "cure of strongyloidiasis", "setting": "[16]; single dose", "result": "can cure human strongyloidiasis"}, {"measurement": "reduction of microfilaria in skin and ocular tissues", "setting": "[16]; single oral dose 0.15 to 0.20 mg/kg", "result": "rapid and marked reduction"}]}, {"smiles": "O.O=P1(N(CCCl)CCCl)NCCCO1", "note": "(centres unmarked) [Cyclophosphamide, 2H-1,3,2-Oxazaphosphorin-2-amine, N,N-bis(2-chloroethyl)tetrahydro-, 2-oxide, monohydrate]", "values": [{"measurement": "stability", "setting": "[17]", "result": "stable in the gastrointestinal tract"}]}]}
